14 compounds from PubChem BioAssay (NCI) can be followed below.

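Protocol summary: plate cells (96-well), add compound at 5 concentrations, incubate 48 h, interpolate endpoints linearly. Here, GI50 denotes the concentration required for 50% inhibition of growth. TGI: total growth inhibition.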 Bounds are passed on as bounds.

Some test systems named below: IGROV1 ovarian; A549 NSCLC; T-47D breast; UACC-62 melanoma; MOLT-4 leukemia; M14 melanoma; ACHN renal; HOP-92 NSCLC; HT29 colon; SK-MEL-2 melanoma.
Holding throughout (assay): NCI anticancer screen, dose series, 48 h

With `CC(=O)CC12NC(=O)N(C)N=C1N(C)C(=O)N(C)C2=O` (configuration not stated), the TGI with IGROV1 ovarian is more than 100 µM; in the assay with A549 NSCLC, more than 100 µM; with T-47D breast, more than 100 µM; with UACC-62 melanoma, 73.3 µM; with MOLT-4 leukemia, more than 100 µM; in the assay with M14 melanoma it was more than 100 µM. The TGI in the assay on ACHN renal, in the assay on HOP-92 NSCLC and in the assay on HT29 colon was more than 100 µM in each case.

For the compound `Cc1ccc(S(=O)(=O)NCCCSCCO)cc1`, the TGI with A549 NSCLC, in the assay with T-47D breast, with MOLT-4 leukemia, with M14 melanoma, in the assay on ACHN renal and in the assay on HOP-92 NSCLC was more than 100 µM each time. This compound also came in with a TGI in the assay with HT29 colon of more than 100 µM.

Turning to `COc1cccc(/C=N/NC(=O)CN(C)C)c1O`, the TGI in the assay on IGROV1 ovarian, in the assay with A549 NSCLC, in the assay on T-47D breast, in the assay with UACC-62 melanoma, in the assay on MOLT-4 leukemia and in the assay with M14 melanoma was more than 100 µM in each case. In addition, the TGI with ACHN renal, in the assay with HOP-92 NSCLC and with HT29 colon was more than 100 µM in each case.

Regarding `O=C1CCc2ccccc2O1`, the TGI in the assay with IGROV1 ovarian, in the assay with T-47D breast, with SK-MEL-2 melanoma, with UACC-62 melanoma, in the assay with MOLT-4 leukemia and with ACHN renal was more than 100 µM each time. Besides, the TGI with HOP-92 NSCLC and in the assay with HT29 colon was more than 100 µM each time.

Take `CCC1OC2C(CC=C(C)C)=C3OC(C)(O)C(C)(CC)C(=O)C3=C3OC(=O)C=C1C32` (configuration not stated): the TGI is more than 100 µM with A549 NSCLC; more than 100 µM with T-47D breast; 36.1 µM in the assay on SK-MEL-2 melanoma; 83.4 µM in the assay on UACC-62 melanoma; more than 100 µM with MOLT-4 leukemia; more than 100 µM with M14 melanoma. The figures for the TGI with ACHN renal and in the assay with HOP-92 NSCLC were 94.6 µM and 71.2 µM, respectively.

On to `CC1(C)OC2OC(C(=O)c3ccccc3)C3OC(C)(C)OC3C2O1` (configuration not stated), for which the TGI in the assay with IGROV1 ovarian, in the assay on T-47D breast, with SK-MEL-2 melanoma, in the assay with UACC-62 melanoma, in the assay with MOLT-4 leukemia and in the assay with M14 melanoma was more than 100 µM throughout. The TGI in the assay with ACHN renal and with HOP-92 NSCLC was more than 100 µM in each case.

Turning to `COC1=CC(c2ccc[nH]2)=N/C1=C\c1[nH]c(C)c(C)c1CCC(=O)OCc1ccccc1`, the GI50 with A549 NSCLC was 0.602 µM; in the assay on T-47D breast, 0.227 µM; with SK-MEL-2 melanoma it was 0.572 µM; in the assay on MOLT-4 leukemia it was 0.24 µM; in the assay on M14 melanoma, 0.285 µM; in the assay with HOP-92 NSCLC, 0.217 µM. Further, in the assay with HT29 colon, the GI50 is 0.191 µM. Also, the TGI with A549 NSCLC was 11.1 µM; in the assay with T-47D breast, 0.876 µM; in the assay on SK-MEL-2 melanoma it was 2.1 µM; in the assay with MOLT-4 leukemia it was 1.44 µM; in the assay with M14 melanoma, 1 µM; in the assay on HOP-92 NSCLC, 0.732 µM. This compound gave a TGI in the assay with HT29 colon of 1.36 µM.

As to `O=C1C(=O)N(C23CC4CC(CC(C4)C2)C3)C(=S)N1c1ccccc1`, the TGI with IGROV1 ovarian, in the assay on A549 NSCLC, in the assay with T-47D breast, in the assay on SK-MEL-2 melanoma, in the assay on UACC-62 melanoma and in the assay with MOLT-4 leukemia was more than 100 µM throughout. Further, the TGI in the assay with ACHN renal, with HOP-92 NSCLC and with HT29 colon was more than 100 µM throughout.

As for `CP(=O)(O)C(N)c1ccccc1` (configuration not stated), the TGI in the assay with IGROV1 ovarian, in the assay with A549 NSCLC, in the assay on T-47D breast, with UACC-62 melanoma, with MOLT-4 leukemia and with M14 melanoma was more than 100 µM each time. The TGI in the assay on ACHN renal, in the assay on HOP-92 NSCLC and in the assay on HT29 colon was more than 100 µM each time.

In the case of `COc1cc(C(=O)N(C(=O)N2CCCCC2)c2ccccc2)cc(OC)c1OC`, the TGI in the assay with IGROV1 ovarian, in the assay on A549 NSCLC, in the assay with T-47D breast, in the assay on SK-MEL-2 melanoma, in the assay with UACC-62 melanoma and in the assay on MOLT-4 leukemia was more than 100 µM throughout. Also, the TGI in the assay on M14 melanoma, with ACHN renal and in the assay with HOP-92 NSCLC was more than 100 µM in each case.

Consider `Nc1nc(N)c2nc(CNc3ccc(C(=O)NC(CCNC(=O)c4ccccc4C(=O)O)C(=O)O)cc3)cnc2n1` (configuration not stated), for which the GI50 with IGROV1 ovarian is 0.0358 µM; in the assay on A549 NSCLC it was 0.0688 µM; in the assay on MOLT-4 leukemia, 0.0453 µM; with M14 melanoma, 0.0737 µM; in the assay with ACHN renal, 0.0451 µM; in the assay on HOP-92 NSCLC, more than 100 µM. The TGI in the assay on IGROV1 ovarian, with A549 NSCLC, in the assay on T-47D breast, in the assay on SK-MEL-2 melanoma, in the assay with MOLT-4 leukemia and in the assay with M14 melanoma was more than 100 µM in each case. The TGI with ACHN renal, with HOP-92 NSCLC and with HT29 colon was more than 100 µM in each case.

For the compound `COc1ccccc1[C@@H]1CCC2CC[C@@H](c3ccccc3OC)[N+]21Cc1ccccc1` (some centres not stated), the TGI with IGROV1 ovarian is 5.7 µM; with A549 NSCLC, 13.1 µM; in the assay on T-47D breast, 10.8 µM; in the assay on SK-MEL-2 melanoma, 8.86 µM; in the assay on MOLT-4 leukemia, 7.43 µM; in the assay with M14 melanoma, 12 µM. The TGI in the assay with ACHN renal was 12.6 µM; in the assay with HOP-92 NSCLC, 4.06 µM; in the assay on HT29 colon, 10.1 µM.

Turning to `COc1ccc(Oc2nc3c(N)cc(C(F)(F)F)cc3nc2-c2ccccc2)cc1`, the TGI is 43.5 µM with IGROV1 ovarian; 26.9 µM in the assay on T-47D breast; 25.9 µM in the assay on SK-MEL-2 melanoma; more than 100 µM in the assay on UACC-62 melanoma; more than 100 µM in the assay with MOLT-4 leukemia; 41.3 µM in the assay on M14 melanoma. In addition, the TGI was more than 100 µM in the assay with ACHN renal, more than 100 µM with HOP-92 NSCLC and 22.8 µM in the assay with HT29 colon.

With `N#CCN1CCCN(CC#N)CCN(CC#N)CCCN(CC#N)CC1`, the TGI with IGROV1 ovarian, in the assay on A549 NSCLC, in the assay with T-47D breast, in the assay on SK-MEL-2 melanoma, in the assay with UACC-62 melanoma and with MOLT-4 leukemia was more than 100 µM in each case. In addition, the TGI in the assay with M14 melanoma, in the assay with ACHN renal and in the assay on HOP-92 NSCLC was more than 100 µM in each case.
